The source of these data is patent publication US20240083933A1, “DISACCHARIDES FOR TREATING BONE DISEASES” (UNIVERSITE DE PICARDIE JULES VERNE, priority 2020, published 2024).

Series [1] has as its system HOb cells. Description: Calcium assay (pro-calcifying activity, mineralization) on human primary osteoblastic cells. The class given is cell-based. The conditions noted are these: for percentage of mineralization of the HOb cells / increase in calcification relative to the mineralizing condition: 14 days; for percentage of mineralization of the HOb cells: mineralizing conditions; for increase in calcification relative to the mineralizing condition: HOb. The protocol:
(§1) For all experiments, a mouse pre-osteoblastic cell line (MC3T3-E1, ATCC) and human primary osteoblastic cells (HOb, Promocell) were used. The mouse pre-osteoblastic cells were cultured in 75 cm^2 flasks, containing 15 mL of α-MEM medium (M4526, SIGMA) and 10% fetal calf serum (FCS), containing 1% Penicillin/Streptomycin antibiotics and 1% glutamine. Similarly, human HOb cells were cultured in 75 cm 2 flasks containing 15 mL of proliferation medium (Human Osteoblast Proliferation Medium, PromoCell). The cells are maintained in the oven at 37° C., with 5% CO2 and 90% humidity. The medium was changed every three days.
(§2) MC3T3-E1 cells were seeded in 6-well plates at 63,700 cells/well to be treated in order to extract RNA or for alkaline phosphatase enzymatic activity assay and in 48-well plates for the calcium assay at 5250 cells/well. The HOb cells were seeded at 182,000 cells/well in 6-well plates for the extraction of RNA or for the alkaline phosphatase enzymatic activity assay; at 15,000 cells/well in 48-well plates for the calcium assay; at 10,000 cells/well in 48-well plates for the MTT test or the WST-1 test and at 100,000 cells/well in 6-well plates for the protein extraction or for the fluorescence.
(§3) In order to induce the mineralization, the MC3T3-E1 cells were treated with α-MEM medium containing 5% FCS to which 10 mM of β-glycerophosphate and 50 μg/mL of ascorbic acid are added. The HOb cells were treated with the “Osteoblast mineralization medium” (Promocell). […] After filtration, the cells were treated with the respective media (500 μL per well of the 48-well plate and 2 mL per well of the 6-well plate).
The calcification has also been studied on human osteoblastic cells (Hob, PromoCell, Heidelberg, Germany). They are isolated from femoral trabecular bone tissues.

For series [2], the system named is MC3T3-E1 cells. Description: Calcium assay (pro-calcifying activity) on mouse pre-osteoblastic cells. The series is classed as cell-based. The conditions noted are these: for increase in calcification relative to the mineralizing medium: MC3T3-E1, 25 days. The protocol: FIG. 1 represents the calcium dosage in the MC3T3-E1 culture medium (in […] of protein per well) after 9 days of exposure of these cells to 4 mM of Pi ([…]) (control+Pi) and 4 mM of Pi in the presence of 30 μM of each of the compounds referenced DP2SNA, DP2NA, DP2K and DP2S;
as §1, §2, §3
The release of calcium in the culture medium of mouse pre-osteoblastic cells (MC3T3-E1) has been studied.
An increase in calcification was observed, relative to the mineralizing medium (FIG. 2), in the presence of DP2R0 at 15 μM (40±2%), at 30 μM (28±18%) and at 50 μM (40±28%), and DP2NA at 15 μM (15±14%), at 30 μM (33±12%) and at 50 μM (10±19%).

The subject of series [3] is smooth muscle cells. In words: Calcium production by smooth muscle cells. The class given is cell-based. Conditions: non-calcifying control condition; DP2 5-50 μM (FIG. 5). An excerpt: FIG. […]
This therefore reinforces the hypothesis that DP2 will not induce any calcification on cells other than the osteoblastic cells.

In series [4] the test system is HOb cells. In words: Cytotoxicity, WST-1 test. The series is classed as cell-based, human. The conditions noted are these: 30 μM, culture or mineralizing medium, D2, D4, D7, D14. As for the experimental part:
The toxicity of DP2 has also been studied by another cell viability test: WST-1 (a tetrazolium salt). The HOb cells were seeded in 48-well plates (10,000 cells per well), two days later, the cells were treated with DP2 30 μM and the WST-1 test was carried out on D2, D4, D7 and D14 post-treatment.
At the end of the treatment, 100 μl of the diluted WST-1 solution (Roche Diagnostics) was added to each well and the plate is incubated at 37° C. with 5% CO2 for 1 h. The cell proliferation induces an increase in the activity of mitochondrial dehydrogenases, which cleaves the tetrazolium salt into formazan. The amount of formazan dye was quantified by measuring the absorbance of dye at 450 nm (Envision, PerkinElmer). The results are expressed as percentage of viability in comparison to the untreated control condition.
(§4) Before determining whether our molecule alters the survival of osteoblastic cells, its cytotoxicity was tested on the HOb cells by the MTT and WST-1 tests. The cells were treated with DP2 at 30 μM with the culture medium (Ctrl) or the mineralizing medium (Min) for 2, 4, 7 and 14 days (D).

Series [5] has as its system HOb cells. Description: Cytotoxicity, MTT test. The class given is cell-based, human. The conditions noted are these: 30 μM, culture or mineralizing medium, D2, D4, D7, D14. The protocol: In order to study the toxicity of DP2, cell viability was determined using the MTT test (3-(4,5-dimethyl-2-thiazolyl)-2,5-diphenyl-2H-tetrazolium bromide). The HOb cells were seeded in 48-well plates (10,000 cells per well), two days later the cells were treated with DP2 30 μM and the MTT test was carried out on D2, D4, 7 and D14 post-treatment.
After washing the cells with DMEM (Dulbecco's Modified Eagle Medium) without phenol red, 250 μl of the diluted MTT solution were added to each well and the plate is incubated at 37° C. with 5% CO2 for 1 hour. The amount of MTT reduced in formazan is proportional to living cells. The purple formazan crystals were solubilized in 220 μl of DMSO and after stirring to homogenize the coloration, the absorbance was measured at 560 nm (Envision, PerkinElmer). The cytotoxicity was assessed by comparing the cell viability between the control group and the experimental group.
as §4
(In general: Tetrazolium assays rely on reduction of a dye to a coloured formazan, in cell work by metabolically active cells.)

Where “and” joins values, the source holds several entries; their conditions need not be identical. Equal values may be shown once.

As for `CCCO[C@H]1OC(CO)[C@@H](O[C@@H]2OC(CO)[C@@H](O)C(O)C2NC(C)=O)C(O)C1OC(C)=O` (stereo partly drawn) [DP2, n-propyl, 2-O-acetyl-α-D-Glucopyranoside, 4-O-(2-acetamido-2-deoxy-β-D-glucopyranosyl)], the “percentage of mineralization of the HOb cells” value in series [1] (30 μM, listed as DP2R0) is 181.573±9.155%; in series [1] (30 μM, listed as DP2R2), 137.012±52.452% and 204.472% and 159.03±18.719%. Also, the “increase in calcification relative to the mineralizing condition” value in series [1] (15 μM) is 26±10%; in series [1] (30 μM) it was 40±15%; in series [1] (50 μM), 8±17%. For the same compound, the “mineralization of the HOb cells relative to the mineralizing medium alone” value in series [1] (lower concentrations 5, 7.5 and 10 μM (FIG. 4)) is reported as “decrease in mineralization”. Further, the “production of calcium by the MC3T3-E1 cells (calcium dosage in culture medium)” value in series [2] (9 days, 4 mM Pi, 30 μM compound, vs control+Pi (FIG. 1)) is “increase the production of calcium”. For the same compound, the “increase in calcification relative to the mineralizing medium” value in series [2] (15 μM) was determined as 40±2%; in series [2] (30 μM), 28±18%; in series [2] (50 μM), 40±28%. The “pro-calcifying action on the smooth muscle cells” value in series [3] is on record as “no pro-calcifying action”. In series [4], the “cell viability, WST-1 test” value is listed as “no significant difference”. Further, the “cell viability, MTT test” value in series [5] is “no significant difference”.
